Experimental data: US20250027930A1, “SMALL MOLECULES FOR REPROGRAMING ANTI-TUMOR IMMUNITY OF T CELLS” (THE SCRIPPS RESEARCH INSTITUTE, priority 2021, published 2025)

Legend:
OVA-specific TILs = test: In vivo expansion of expanded OVA-specific TILs after LM-OVA challenge; design: species or system mouse; settings: naïve mice; vs T cells expanded without added sugars
P14 CD8+ T cells = assay type: in vivo, mouse
OT-1 cells = test: OT-I-Tcf7GFP splenocyte screen: proliferation and Tim3−TCF-1+ ratio; assay type: cell-based, mouse; settings: Day7, 80 mM
Procedure: Cell number was recorded on day 3 and day 7. On day 7, cells were stained with anti-CD8a (PerCP-Cy5.5) and anti-Tim3 (BV421) antibodies for flow cytometry or plate reader analysis.
Because TCF1 expression positively correlates with T cell stemness, the greater signal of EGFP a T cell expresses, the less differentiated the T cell is. Furthermore, if the compound also facilitates T cells proliferation, there would be more T cells per well in comparison to the untreated control. Therefore, a compound that not only maintains TCF-1 expression but also facilitates T cell growth would produce the strongest green fluorescence intensity. […] GlcA stands for glucuronic acid.

[1] = system: MC38 TSA-reactive CD8+ TILs; test: Rapid expansion of TSA-reactive CD8+ TILs from MC38 tumors; assay type: cell-based, mouse
Procedure: Sugars were added at the beginning or during the expansion of the TILs, and kept till the end of expansion. On expansion day 9, phenotypes of the expanded T cells were assessed, and the cells were used for adoptive transfer (FIG. 6E). For adoptive transfer, 0.5 million cells (B16-OVA or MC38) were inoculated subcutaneously on each mouse on day 0, Listeria monocytogenes-OVA (LM-OVA) infection 0.5 million CFU/mice on day 1, and blood analysis was recorded on day 7.

P14 cells = test: P14 splenocyte in vitro activation, re-stimulation and expansion; assay type: cell-based, mouse; settings: 80 mM; for Fold of proliferation, Normalized to W/O: P14 cells
anti-GD2 CAR-T cells = test: Anti-GD2 CAR-T cell expansion with Inhibitor 9/12, phenotype and cell number; settings: for expression of inhibitory receptors (PD-1, LAG3, Tim-3 and CD39) of anti-GD2 CAR-T cells / progenitor features of anti-GD2 CAR-T cells: Inhibitor 9 at 2 or 3 uM, Inhibitor 12 at 1 or 2 uM, day 15
OT-I splenocytes = test: OT-I splenocyte culture with KRAS (G12C) inhibitors 9/12 and analogues; assay type: cell-based, mouse; settings: added D0 at 5 uM or D3 at 5 uM or 10 uM, kept till day 7
Procedure: We performed additional studies to examine the observed activities of KRAS (G12C) inhibitors in modulating T cell properties. First, OT-I splenocytes were activated with OVA257-264 peptide (500 nM) for 3 days in the presence of 60 IU/mL IL-2 and cultured for another 7 days. Inhibitor 9 (i9) or inhibitor 12 (i12) was added on Day0 (D0) upon activation at 5 uM and the concentration was kept till day 7 or added on Day3 (D3) after activation at 5 uM or 10 uM and the concentration was kept till day 7 for analysis.
Other than inhibitors 9 and 12, we also tested activities of two analogues of these KRAS (G12C) inhibitors. The analogues, Z7 and Z6, are derived from Inhibitor 9 and Inhibitor 12, respectively. They have an alkynyl group for click reaction which is used for ABPP analysis to find the targets of the inhibitors (FIG. 18A). In the studies, OT-I splenocytes were activated with OVA257-264 peptide (500 nM) for 3 days in the presence of 60 IU/mL IL-2 and cultured for another 7 days. 5 uM […], i9, z6 or z7 were added on Day0 (DO) upon activation.
As noted above, Inhibitor 9 and Inhibitor 12 have a cysteine-reactive group ([…] and acrylamide) that allows covalent binding of i9 and i12 to a cysteine residue in proteins. We further tested two analogue compounds, ZT-1 and ZT-2, that are not capable of forming the covalent binding. […] Cell number was recorded on day 5 and day 7. […]

hPBMCs [2] = test: Donor hPBMC expansion with irradiated feeder cells; assay type: cell-based, human; settings: 2 μM
Procedure: (FIG. 9A) Donor hPBMCs were activated twice with irradiated (50 Gy) feeder cell mixture, initially on day 0 and then similarly on day 6. […] (FIG. 9C) Gated CD8^+ hPBMCs were analyzed for the expression of inhibitory receptors Tim-3 and PD-1 (terminally exhausted phenotype downregulation not statistically significant in either donor). (FIG. 9D) the expression of Tim-3 and TCF-1. (FIG. 9E) the expression of CCR7 and CD45RA.
Donor hPBMC cells were co-cultured 1:1 with an irradiated (50 Gy) mixture of hPBMCs from five different donors (henceforth, feeder cells). Irradiation arrests cell division, yet these feeder cells retain the ability to provide extracellular secretions to help donor cells proliferate. Cytokine signaling and HLA mismatch provides for robust donor hPBMC activation. Donor hPBMCs were activated twice with the irradiated feeder cell mixture, initially on day 0 and then similarly on day 6 (FIG. 9A). Beginning on day 0, donor hPBMCs were continuously cultured with 300 IU/mL IL2 and with or without K-Ras(G12C) inhibitor 12 (2 μM) (FIG. 9A).

CD8+ OT-I T cells = test: OT-I splenocyte culture with K-Ras(G12C) inhibitors; assay type: cell-based, mouse; settings: 5 μM
M8 tetramer+ CD8+ TILs = test: Rapid expansion of M8 tetramer+ CD8+ TILs from MC38 tumors; assay type: cell-based, mouse; settings: 5 μM
Text: We further observed that K-Ras(G12C) inhibitor 12 prevents the generation of terminally exhausted (PD-1^+, Tim-3^+) antigen-specific CD8^+ tumor infiltrating lymphocytes (TILs) and facilitates production of progenitor-like (Tpex, Tim-3^−, TCF-1^+) antigen-specific CD8^+ TILs during in vitro expansion. Specifically, to elucidate the ability of K-Ras(G12C) inhibitor 12 to modulate properties of tumor infiltrating lymphocytes (TILs) in vitro, we utilized an MC38 murine colonic cancer model. C57BL/6J (B6) mice were inoculated with MC38 cells. Tumors were grown for 14 days and then harvested. Antigen specific (H-2K^b-restricted MuLV p15E604-611-specific, henceforth M8 tetramer^+) CD8^+ TILs were isolated. M8 tetramer^+ CD8^+ TILs were subjected to rapid expansion. On day 1 of rapid expansion, TILs were added 1:100 with irradiated BALB/c splenocytes and incubated with 1500 IU/mL IL2 for proliferation, […] anti-CD3 (mouse) antibody for activation, and with or without K-Ras(G12C) inhibitor 12 (5 μM).

hPBMCs [3] = test: Donor hPBMC expansion with irradiated feeder cells; assay type: cell-based, human; settings: 2 μM; remark: listed apart in the source

## OC[C@H]1O[C@@](CO)(O[C@H]2O[C@H](CO)[C@@H](O)[C@H](O)[C@H]2O)[C@@H](O)[C@@H]1O [Sucrose, sucrose]
OVA-specific TILs
  proliferation of transferred expanded cells after LM-OVA challenge: better proliferation
P14 CD8+ T cells; 7 dpi LCMV-Cl13, cells pre-treated in vitro, vs co-transferred untreated P14 cells
  percentages and total numbers of expanded virus-specific P14 CD8+ T cells in the blood: significantly higher
P14 CD8+ T cells; 14 dpi LCMV-Cl13, cells treated in vitro, vs untreated
  percentages and total numbers of expanded virus-specific P14 CD8+ T cells in the spleen and liver: significantly higher
OT-1 cells; w/o 2.6
  Tim3^−TCF-1^+ ratio of CD8^+ T cells (%): 41.2%
OT-1 cells; Mus musculus, Splenocyte, 168 h, OT-1 cells, read-out: Proliferation fold, Normalized to W/O
  activity at 80000 µM: 86%
[1]
  cell surface anti-CLA (Cutaneous Lymphocyte-associated Antigen) staining: significant increase
P14 cells; Day6
  Fold of proliferation, Normalized to W/O: 1.80 fold
P14 cells; Day6, w/o 55.0
  Tim3^−TCF-1^+ ratio of CD8^+ T cells (%): 89.8%
P14 cells; Day9
  Fold of proliferation, Normalized to W/O: 2.85 fold
P14 cells; Day9, w/o 3.5
  Tim3^−TCF-1^+ ratio of CD8^+ T cells (%): 48.6%

## K-Ras(G12C) Inhibitor 9
anti-GD2 CAR-T cells; 2 or 3 uM
  proliferation of CAR-T cells: facilitated the proliferation
anti-GD2 CAR-T cells
  expression of inhibitory receptors (PD-1, LAG3, Tim-3 and CD39) of anti-GD2 CAR-T cells: decreased the expression of inhibitory receptors
  progenitor features of anti-GD2 CAR-T cells: increased progenitor features
OT-I splenocytes
  expression of inhibitory receptors (Tim-3+PD-1): decreased

## C=CC(=O)N1CCN(C(=O)CNc2cc(I)c(Cl)cc2O)CC1 [K-Ras(G12C) inhibitor 12]
anti-GD2 CAR-T cells
  expression of inhibitory receptors (PD-1, LAG3, Tim-3 and CD39) of anti-GD2 CAR-T cells: decreased the expression of inhibitory receptors
  progenitor features of anti-GD2 CAR-T cells: increased progenitor features
hPBMCs [2]; day 13, donor 3, untreated 3.52%
  terminally exhausted (PD-1^+, Tim-3^+) CD8^+ hPBMCs: 2.6%
hPBMCs [2]; day 13, donor 3, untreated 15.7%
  terminally exhausted (PD-1^+, Tim-3^+) CD4^+ hPBMCs: 0.83%
hPBMCs [2]; day 13, donor 3, untreated 15.9%
  progenitor-like phenotype (Tim-3^−, TCF-1^+) CD8^+ hPBMCs: 51.5%
hPBMCs [2]; day 13, donor 4, untreated 5.01%
  terminally exhausted (PD-1^+, Tim-3^+) CD8^+ hPBMCs: 3.27%
hPBMCs [2]; day 13, donor 4, untreated 6.78%
  progenitor-like phenotype (Tim-3^−, TCF-1^+) CD8^+ hPBMCs: 39.7%
hPBMCs [2]; donor 3 and donor 4
  CD8^+ terminally differentiated effector memory cells (TEMRA, CCR7^−, CD45RA^+): downregulated
  stem-like memory CD8^+ T cells (TSCM, CCR7^+, CD45RA^+): produced less-differentiated stem-like memory CD8^+ T cells
hPBMCs [2]; hPBMCs from both donors
  mean cell expansion: no statistically significant compromise
CD8+ OT-I T cells; OT-I
  cell expansion: does not compromise cell expansion
CD8+ OT-I T cells; OT-I culture model
  generation of progenitor-like T cells: effectively promoted the generation of progenitor-like T cells
CD8+ OT-I T cells; day 5, untreated 23.8%
  terminally exhausted (PD-1^+, Tim-3^+) CD8^+ OT-I T cells: about 0.46%
CD8+ OT-I T cells; day 5, untreated 38.6%
  progenitor-like phenotype (Tim-3^−, TCF-1^+) CD8^+ OT-I T cells: 91.6%
M8 tetramer+ CD8+ TILs; day 8 post rapid expansion, untreated 79.4%
  CD8+ cells displaying the terminally exhausted phenotype (PD-1^+ Tim-3^+): 29.2%
M8 tetramer+ CD8+ TILs; day 8 post-expansion, pre-expansion 0.1×10^6, untreated 1.18×10^6, n=1
  cell expansion: 0.397×10^6 TILs
M8 tetramer+ CD8+ TILs; post-expansion, untreated 0.076%
  CD8^+ cells displaying the progenitor-like phenotype (Tim-3^−, TCF-1^+): 12.8%
OT-I splenocytes
  expression of inhibitory receptors (Tim-3+PD-1): decreased
hPBMCs [3]
  TEMRA (donor 3) or TEM (donor 4) CD4^+ hPBMCs: downregulated
  stem-like memory CD4^+ T cells (TSCM, CCR7^+, CD45RA^+): upregulated
hPBMCs [3]; day 13, donor 3, untreated 33.3%
  progenitor-like phenotype (Tim-3^−, TCF-1^+) CD4^+ hPBMCs: 78.4%
hPBMCs [3]; day 13, donor 4, untreated 14.7%
  terminally exhausted (PD-1^+, Tim-3^+) CD4^+ hPBMCs: 7.9%
hPBMCs [3]; day 13, donor 4, untreated 53.3%
  progenitor-like phenotype (Tim-3^−, TCF-1^+) CD4^+ hPBMCs: 78.7%
